Measured values reported in publication PMC8763382, “2-Sulfonylpyrimidines as Privileged Warheads for the Development of S. aureus Sortase A Inhibitors” (Frontiers in Molecular Biosciences, 2022).
“And” between values parts separate entries of the source, which are not always exact repeats. Equal values may be shown once.

Columns and labels:
S. aureus SrtA = molecular target: T1, S. aureus SrtA (Staphylococcus aureus, UniProt Q2FV99); assay: fluorometric enzyme assay of SrtA transpeptidation (Abz-LPETG-Dap(Dnp)-OH substrate); assay type: biochemical; conditions: for k inact: maximum inactivation rate; for k inact / k 2nd / KI (inactivation): Tris pH 7.50, n. i. = <20% inhibition at 100 µM; for k 2nd: second-order rate of inhibition; for SrtA inhibition (in words): fluorometric enzyme assay, inhibitor concentration 100 µM; for inhibition at 100 µM: read-out: SrtA inhibition relative to the DMSO control; for KI (inactivation): read-out: KI, dissociation constant of the reversible enzyme-inhibitor complex
T1 construct: His tag (inferred from IMAC on a HisTrap column); made in house; host or cells: E. coli BL21 Gold (DE3)
Protocol: To evaluate the inhibition potency of the parent sulfonylpyrimidine 4, this compound was tested by means of a fluorometric enzyme assay with recombinantly expressed S. aureus SrtA ([Schmohl et al., 2017b]) and Abz-LPETG-Dap (Dnp)-OH as substrate. […] To verify the irreversible mode of inhibition, we determined the maximum inactivation rate k inact, the dissociation constant of the reversible enzyme-inhibitor complex KI, and the second-order rate of inhibition k 2nd. For compound 4, a k inact = 0.00065 s^−1 was found, which is very low compared to other covalent SrtA inhibitors ([Chan et al., 2017]; [Barthels et al., 2020]; [Jaudzems et al., 2020]).
Inhibition assays of S. aureus SrtA transpeptidation reactions were performed as described previously ([Barthels et al., 2020]). Briefly, the recombinantly expressed SrtA (final concentration: 1 µM) was incubated in assay buffer (50 mM Tris, 150 mM NaCl, 5 mM CaCl2, pH 7.50) with 25 µM of the FRET-pair substrate Abz-LPETG-Dap (Dnp)-OH (Genscript, Piscataway, New Jersey) and 0.5 mM tetraglycine (Sigma Aldrich, St. Louis, Missouri). Inhibitors were added from DMSO stocks. Reactions were initiated by addition of SrtA and monitored for 30 min at 30°C in an Infinite M200 Pro plate reader with λex 320 nm/λem 430 nm (Tecan, Männedorf, Switzerland). Three technical replicates were carried out for each inhibitor in black flat-bottom 96-well plates (Greiner bio-one, Kremsmünster, Austria). The enzyme kinetics of irreversible SrtA inactivation were analyzed as described previously ([Barthels et al., 2020]).

[1] = molecular target: human protease urokinase plasminogen activator (uPA) (Homo sapiens, UniProt P00749); assay: protease selectivity panel, fluorometric assay urokinase plasminogen activator; assay type: biochemical; conditions: 100 µM inhibitor; n. i. = no inhibition at 100 µM; read-out: uPA inhibition relative to the DMSO control
Protocol: (§1) To investigate how these sulfonylpyrimidines affect the activity of other cysteine and serine proteases, a selectivity panel was constructed from a matrix of 6 diverse sulfonylpyrimidines and 6 different proteases. The compounds were assayed at a final compound concentration of 100 µM for the cysteine proteases human cathepsin B (hCatB), cathepsin L (hCatL), and T. brucei rhodesain (Rd). Furthermore, the serine proteases NS2B-NS3 from Zika virus (ZIKV), the homologous protease from Dengue virus (DENV), and the human protease urokinase plasminogen activator (uPA) were tested for their susceptibility.
(§2) Fluorometric assays of the ZIKV/DENV NS2B/NS3 protease were performed as described previously ([Maus et al., 2021]). The assay was carried out in triplicates at 25°C in assay buffer (50 mM Tris, pH 9.0, 20% glycerol (v/v), and 1 mM CHAPS). 100 µM Boc-Gly-Arg-Arg-AMC (Bachem, Bubendorf, Switzerland) was used as a substrate. Fluorometric assays for cathepsin B, cathepsin L, and rhodesain (Calbiochem, Merck Millipore, Burlington, Massachusetts) were performed as described previously ([Klein et al., 2020a]). Cbz-Phe-Arg-AMC (Bachem, Bubendorf, Switzerland) was used as substrate (100 μM for cathepsin B, 6.5 μM for cathepsin L, and 10 µM for rhodesain). Fluorometric assays for urokinase plasminogen activator were performed as described previously ([Angelini et al., 2012]). 240 µM Cbz-Gly-Arg-Arg-AMC (Bachem, Bubendorf, Switzerland) was used as a substrate.

[2] = molecular target: T2, human cathepsin B (hCatB) (Homo sapiens, UniProt P07858); assay: protease selectivity panel, fluorometric assay cathepsin B; assay type: biochemical; conditions: 100 µM inhibitor; read-out: CatB inhibition relative to the DMSO control
T2 construct: purchased Calbiochem, Merck Millipore
Protocol: as §1, §2

T. brucei rhodesain (Rd) = molecular target: T3, T. brucei rhodesain (Rd) (Trypanosoma brucei rhodesiense, UniProt Q95PM0); assay: protease selectivity panel, fluorometric assay rhodesain; assay type: biochemical; conditions: 100 µM inhibitor; n. i. = no inhibition at 100 µM; read-out: Rd inhibition relative to the DMSO control
T3 construct: purchased Calbiochem, Merck Millipore
Protocol: as §1, §2

cathepsin L (hCatL) = molecular target: T4, cathepsin L (hCatL) (Homo sapiens, UniProt P07711); assay: protease selectivity panel, fluorometric assay cathepsin L; assay type: biochemical; conditions: 100 µM inhibitor; read-out: CatL inhibition relative to the DMSO control
T4 construct: purchased Calbiochem, Merck Millipore
Protocol: as §1, §2

[3] = cysteine reactivity assay (competitive fluorescence assay with probe 8); assay type: physicochemical; conditions: phosphate buffer (1×PBS) pH 7.5
Text: In order to study the kinetics of sulfonylpyrimidines reacting with free cysteine in solution, a strategy for a competitive fluorescence-based assay was adapted from previous works ([Epps and Taylor, 2001]; [Sameshima et al., 2017]). […] The reaction of probe 8 with cysteine liberates 4-methylumbelliferone as a fluorometrically detectable product (Figure 7A), and thus, the fluorescence increase can be described by the second-order rate constant k probe (Equation 1).
Upon the addition of competitive and irreversible cysteine modifiers such as sulfonylpyrimidines, the fluorescence increase of the probe reaction was hyperbolically attenuated (Figure 7B). According to the conceptual deduction described previously ([Epps and Taylor, 2001]; [Sameshima et al., 2017]), the experimental fluorescence curves can be analyzed by nonlinear regression as first-order reaction progress curves (Equation 2). The parameter k obs describes the curvature corresponding to the sum of the competing kinetics (Equation 3). Under the assumptions that 1) the competitive reaction between sulfonylpyrimidines vs. probe with cysteine is started by simultaneous addition, and 2) sulfonylpyrimidines are added at a much higher concentration than cysteine (5 µM) and the probe (5 µM), the k obs values depend substantially on the k chem value. The compound-specific second-order inactivation parameter k chem can be determined by linear regression from the k obs values of the dilution series (Equation 4). d[FL]/dt=kprobe[Cys][probe] (1) FL=[Cys]total⋅kprobe [probe]/kprobe [probe] + kchem [sulfonylpyrimidine](1−e^−kobs⋅t) (2) kobs=kchem [sulfonylpyrimidine]+kprobe [probe] (3) kchem=kobs/[sulfonylpyrimidine] (4)
Kinetic characterization of the reaction between sulfonylpyrimidines and cysteine was performed in degassed phosphate buffer (1×PBS, pH 7.5) or individual cases in bicarbonate buffer (20 mM NaHCO3, 100 mM NaCl, pH 7.5). Three technical replicates were carried out for each sulfonylpyrimidine in black flat-bottom 96-well plates. For this purpose, 50 µL buffered solution (including 5% (v/v) DMSO) of the respective sulfonylpyrimidine derivative (final: 250–3 µM) and the cysteine reactive probe 8 (final: 5 µM) were premixed. Reactions were initiated by the addition of 50 µL cysteine (final: 5 µM), dissolved in the respective buffer, and monitored for 30 min at 30°C in an Infinite M200 Pro plate reader with λex 380 nm/λem 460 nm. To calculate k obs and k chem values, fluorescence curves were fitted using the same non-linear regression as for in vitro inhibition of SrtA ([Barthels et al., 2020]).

[4] = molecular target: T5, NS2B-NS3 from Zika virus (ZIKV) (Zika virus, UniProt Q32ZE1); assay: protease selectivity panel, fluorometric assay ZIKV NS2B/NS3 protease; assay type: biochemical; conditions: 100 µM inhibitor; read-out: ZIKV inhibition relative to the DMSO control
T5 construct: The ZIKV NS2B/NS3 protease is a serine protease and contains two non-catalytic cysteine residues
Protocol: as §1, §2

DENV NS2B/NS3 protease = DENV NS2B/NS3 protease (Dengue virus type 2, UniProt P29990); assay: protease selectivity panel, fluorometric assay DENV NS2B/NS3 protease; assay type: biochemical; conditions: 100 µM inhibitor; n. i. = no inhibition at 100 µM; read-out: DENV inhibition relative to the DMSO control
Protocol: as §1, §2

T1 sequence (Q2FV99 60-206): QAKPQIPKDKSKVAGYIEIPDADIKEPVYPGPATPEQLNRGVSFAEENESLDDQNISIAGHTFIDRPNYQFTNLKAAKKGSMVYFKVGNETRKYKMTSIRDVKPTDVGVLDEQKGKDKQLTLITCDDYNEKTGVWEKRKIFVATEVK
T5 sequence (Q32ZE1 1499-1676): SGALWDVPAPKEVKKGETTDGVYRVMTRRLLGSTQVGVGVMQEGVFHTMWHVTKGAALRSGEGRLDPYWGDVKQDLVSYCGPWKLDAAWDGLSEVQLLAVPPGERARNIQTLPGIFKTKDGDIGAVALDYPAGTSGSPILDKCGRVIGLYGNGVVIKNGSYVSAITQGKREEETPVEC
T5 sequence (Q32ZE1 1421-1460): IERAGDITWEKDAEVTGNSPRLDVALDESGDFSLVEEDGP
T3 sequence (Q95PM0 entry or part of it): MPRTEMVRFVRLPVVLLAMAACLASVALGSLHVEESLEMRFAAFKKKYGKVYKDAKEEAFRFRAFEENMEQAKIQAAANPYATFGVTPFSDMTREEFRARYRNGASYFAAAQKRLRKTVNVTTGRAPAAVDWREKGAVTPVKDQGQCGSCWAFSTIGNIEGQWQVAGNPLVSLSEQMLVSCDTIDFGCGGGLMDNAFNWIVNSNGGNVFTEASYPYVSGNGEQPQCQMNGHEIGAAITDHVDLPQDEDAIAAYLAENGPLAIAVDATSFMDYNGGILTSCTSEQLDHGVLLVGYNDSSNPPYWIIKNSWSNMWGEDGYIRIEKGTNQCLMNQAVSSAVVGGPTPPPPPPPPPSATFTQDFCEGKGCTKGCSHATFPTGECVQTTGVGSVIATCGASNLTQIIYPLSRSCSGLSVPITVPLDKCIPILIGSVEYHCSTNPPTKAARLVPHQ
T4 sequence (P07711 114-333): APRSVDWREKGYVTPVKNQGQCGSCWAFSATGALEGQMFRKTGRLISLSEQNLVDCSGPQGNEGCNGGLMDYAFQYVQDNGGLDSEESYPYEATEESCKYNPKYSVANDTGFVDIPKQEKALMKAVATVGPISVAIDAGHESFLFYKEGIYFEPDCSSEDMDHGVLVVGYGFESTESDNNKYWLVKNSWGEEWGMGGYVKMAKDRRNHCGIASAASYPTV
Chain of DENV NS2B/NS3 protease (P29990 1398-1437): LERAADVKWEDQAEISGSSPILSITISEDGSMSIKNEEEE
Chain of DENV NS2B/NS3 protease (P29990 1476-1653): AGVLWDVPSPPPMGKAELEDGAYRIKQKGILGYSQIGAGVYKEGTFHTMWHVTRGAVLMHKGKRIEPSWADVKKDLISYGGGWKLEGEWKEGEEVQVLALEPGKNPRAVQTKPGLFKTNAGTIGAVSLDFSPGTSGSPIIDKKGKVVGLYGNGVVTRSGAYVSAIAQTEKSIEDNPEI

Structure (SMILES)	k inact (S. aureus SrtA)	k 2nd (S. aureus SrtA)	melting point [°C]	SrtA inhibition (in words) (S. aureus SrtA)	also measured
CS(=O)(=O)c1ncc(Cl)c(C(=O)Nc2ccc3[nH]ncc3c2)n1 [Compound 5f]	n. i.	n. i.	231	–	–
CS(=O)(=O)c1ncc(Cl)c(C(=O)NCCSc2ccccc2)n1 [Compound 6n]	n. i.	n. i.	–	complete loss of inhibition	–
CS(=O)(=O)c1nc(Cl)cc(NC(=O)c2ccccc2Oc2ccccc2)n1 [Compound 6i]	–	–	184	complete loss of inhibition	inhibition at 100 µM [1]: 59.4%; inhibition at 100 µM (S. aureus SrtA): 36%; inhibition at 100 µM [2]: 9.5%; inhibition at 100 µM (T. brucei rhodesain (Rd)): 9.2%; inhibition at 100 µM (cathepsin L (hCatL)): 21.3%; Cysteine k chem [3]: 0 M⁻¹ s⁻¹; inhibition at 100 µM [4]: 29.3%; inhibition at 100 µM (DENV NS2B/NS3 protease): 15%
COc1cccc(NC(=O)c2nc(S(C)(=O)=O)ncc2Cl)c1 [Compound 6e]	–	882 M⁻¹ min⁻¹ and 882 ± 43 M⁻¹ min⁻¹	–	–	Ki (S. aureus SrtA): > 100 µM
CS(=O)(=O)c1ncc(Cl)c(C(=O)NCC(=O)Nc2cccc(Oc3ccccc3)c2)n1 [Compound 5b]	0.00082 ± 0.00004 s⁻¹	1,175 M^−1min^−1 and 1,175 ± 67 M^−1min^−1	91	–	KI (inactivation) (S. aureus SrtA): 42.4 ± 4.62 µM
CS(=O)(=O)c1ncc(Cl)c(C(=O)Nc2cccc(Sc3ccccc3)c2)n1 [Compound 6b]	0.00578 ± 0.00033 s⁻¹	7,305 ± 294 M^−1min^−1	135	–	KI (inactivation) (S. aureus SrtA): 47.5 ± 4.62 µM
CS(=O)(=O)c1ncc(Cl)c(C(=O)Nc2cccc(Cc3ccccc3)c2)n1 [Compound 6d]	0.00618 ± 0.00025 s⁻¹	6,181 ± 489 M^−1min^−1	148	–	KI (inactivation) (S. aureus SrtA): 60.3 ± 6.4 µM
CCC(CC)NC(=O)c1nc(S(C)(=O)=O)ncc1Cl [Compound 5i]	n. i.	n. i.	146	–	–
CS(=O)(=O)c1ncc(Cl)c(C(=O)Nc2ccc3c(c2)oc2ccccc23)n1 [Compound 6l]	n. i.	n. i.	250	complete loss of inhibition	–
CS(=O)(=O)c1ncc(Cl)c(C(=O)Nc2cccc(OC3CCCCC3)c2)n1 [Compound 6c]	0.00864 ± 0.00092 s⁻¹	6,593 M^−1min^−1 and 6,593 ± 243 M^−1min^−1	144	–	KI (inactivation) (S. aureus SrtA): 78.8 ± 9.92 µM
CS(=O)(=O)c1ncc(Cl)c(C(=O)Nc2cccc(-c3ccccc3)c2)n1 [Compound 6f]	–	588 M⁻¹ min⁻¹ and 588 ± 48 M⁻¹ min⁻¹	164	–	Ki (S. aureus SrtA): > 100 µM
CS(=O)(=O)c1ncc(Cl)c(C(=O)Nc2ccc(Oc3ccccc3)cc2)n1 [Compound 6h]	n. i.	n. i.	195	complete abolition of inhibition	–
CS(=O)(=O)c1ncc(Cl)c(C(=O)N(Cc2ccccc2)Cc2ccccc2)n1 [Compound 5k]	n. i.	n. i.	68	–	–
CS(=O)(=O)c1ncc(Cl)c(C(=O)N2CCc3ccccc3C2)n1 [Compound 5h]	n. i.	n. i.	218	–	–
CS(=O)(=O)c1ncc(Cl)c(C(=O)Nc2cccc(C(=O)Nc3ccccc3)c2)n1 [Compound 6m]	n. i.	n. i.	237	inhibition was completely abolished	–
CS(=O)(=O)c1ncc(Cl)c(C(=O)Nc2cccc(OCc3ccccc3)c2)n1 [Compound 6k]	n. i.	n. i.	154	inhibition was completely abolished	–
Cc1cnc(S(C)(=O)=O)nc1C(=O)Nc1cccc(Oc2ccccc2)c1 [Compound 7d]	–	1,204 ± 139 M^−1min^−1	164	–	S. I. (k 2nd/k chem) (S. aureus SrtA; SrtA k 2nd over cysteine k chem): 196; Cysteine k chem [3]: 0.102 ± 0.0285 M⁻¹ s⁻¹
Cc1ccc(-c2csc(NC(=O)c3nc(S(C)(=O)=O)ncc3Cl)n2)cc1 [Compound 5g]	n. i.	n. i.	280	–	–
CS(=O)(=O)c1ncc(Cl)c(C(=O)Nc2ccccc2Oc2ccccc2)n1 [Compound 6g]	–	–	177	complete abolition of inhibition	inhibition at 100 µM [1]: 67%; inhibition at 100 µM (S. aureus SrtA): 21.8%; inhibition at 100 µM [2]: 11.8%; inhibition at 100 µM (T. brucei rhodesain (Rd)): 15%; inhibition at 100 µM (cathepsin L (hCatL)): 29.4%; inhibition at 100 µM [4]: 18.3%; inhibition at 100 µM (DENV NS2B/NS3 protease): 2.6%
CS(=O)(=O)c1ncc(Cl)c(C(=O)Nc2ccc(-c3ccc(C#N)cc3)cc2)n1 [Compound 5d]	n. i.	n. i.	267	–	–
